Assay results published in patent US5798352A, “Antithrombotic amidinotetrahydropyridylalanine derivatives” (Pfizer Inc., priority 1995, dated 1998).
Where a name gives a salt, the structure may show the parent alone.

What was measured:
thrombin = thrombin (Bos taurus, UniProt P00735); experiment: Chromogenic assay, thrombin inhibition (substrate S2238); assay type: biochemical; conditions: in vitro; bovine thrombin; Ki calculated from substrate Km and IC50; pH 8.0, 30° C.
Procedure: (§1) The biological activities of the compounds of the present invention were determined by the following test methods.
(§2) The inhibition of thrombin, trypsin, plasmin or factor Xa is measured in 96 well plate chromogenic assays. The percentage inhibition and IC50 are calculated from triplicate samples of an 8 concentration dose-response curve. From the substrate Km and IC50, the Ki for each inhibitor is calculated. All assays are carried out in a total incubation of 200 μl of 50 mM HEPES and 150 mM NaCl at pH 8.0, and all compound dilutions are preincubated with enzyme at room temperature for 15 minutes prior to addition of substrate. After 30 minutes incubation at 30° C., the O.D. is measured at […] in a 96 well plate reader. Thrombin activity is measured using bovine thrombin and S2238 (H-D-Phe-Pip-Arg-pNA), bovine pancreatic trypsin is assayed with S2222 (Benz-Isoleu-Glu-Gly-Arg-pNA), bovine plasma plasmin is assayed with Chromozym PL (Tosyl-Gly-Pro-Lys-pNA)and bovine fac or Xa is assayed in 50 mM Tris, 150 mM NaCl, pH 7.5 buffer with S2222.

trypsin = biological target: T1, trypsin (Bos taurus, UniProt P00760); experiment: Chromogenic assay, trypsin inhibition (substrate S2222); assay type: biochemical; conditions: in vitro; bovine pancreatic trypsin; Ki calculated from substrate Km and IC50; pH 8.0, 30° C.
T1 construct: from tissue; host or cells: bovine pancreas
T1 sequence (P00760 24-246): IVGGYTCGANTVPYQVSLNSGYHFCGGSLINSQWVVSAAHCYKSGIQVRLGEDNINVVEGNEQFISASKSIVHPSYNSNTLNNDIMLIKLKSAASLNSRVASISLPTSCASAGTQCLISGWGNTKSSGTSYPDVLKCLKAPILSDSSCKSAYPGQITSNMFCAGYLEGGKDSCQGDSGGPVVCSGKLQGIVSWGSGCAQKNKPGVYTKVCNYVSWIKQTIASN
Procedure: as §1, §2

| Ki (thrombin) [nM] | Ki (trypsin) [nM] | SMILES |
| --- | --- | --- |
| 9.9 | 690 | C[C@H]1CCN(C(=O)[C@H](CC2=CCCN(C(=N)N)C2)NS(=O)(=O)c2ccc3c(c2)CN(C)CC3)[C@@H](C(=O)O)C1 [Example 6, 4(S)-Methyl-1-[N-(2-methyl-1,2,3,4-tetrahydroisoquinoline-7-sulphonyl)-3-(1-amidino-1,2,5,6-tetrahydro-3-pyridyl)-(S)-alanyl]piperidine-2(R)-carboxylic acid dihydrochloride] |
| 1.9 | 2400 | C[C@@H]1CCN(C(=O)[C@H](CC2=CCCN(C(=N)N)C2)NS(=O)(=O)c2ccc3c(c2)CN(C)CC3)[C@H](C(=O)O)C1 [Example 5, 4(R)-Methyl-1-[N-(2-methyl-1,2,3,4-tetrahydroisoquinoline-7-sulphonyl)-3-(1-amidino-1,2,5,6-tetrahydro-3-pyridyl)-(S)-alanyl]piperidine-2(S-carboxylicacid dihydrochloride] |
